Measured values reported in patent publication US6352993B1, “Pyrimidine derivatives and processes for the preparation thereof” (Yuhan Corporation, priority 1997, dated 2002).

Legend:
[1] = test system: gastric secretion in pylorus-ligated Sprague-Dawly rats; assay: Inhibition of gastric secretion (pylorus-ligated rats, Shay method); assay type: in vivo; settings: 20 mg/kg intraduodenally, 5 hours; for Relative conc.: gastric juice acidity relative to omeprazole, equation (II); for Relative volume: gastric juice amount relative to omeprazole, equation (I); for Relative Acid Output: total acid output relative to omeprazole, equation (III)
Description: Test 2: Inhibition of gastric secretion
In accordance with the method disclosed in Shay, H., et al., Gastroenterology 5 43-61(1945), Test 2 was carried out.
Sprague-Dawly rats having a body weight of 170±10 g were divided into 3 groups(n=5) and deprived of food for 24 hours before the experiment with free access to water. Under ether anesthesia, the abdomen was incised, and the pylorus was ligated. As a comparative group, Group 1 was administered intraduodenally in a volume of 0.5 ml/200 g of 30% aqueous polyethylene glycol 400 solution. Groups 2 and 3 were administered intraduodenally with the compound of Example and omeprazole, respectively, each of which was suspended in 30% aqueous polyethylene glycol 400 solution at a concentration of 20 mg/kg. After closing the abdominal cavity, the rats were placed for 5 hours and then killed by cervical dislocation. The stomach was extracted to obtain gastric juice.
Tne gastric juice was centrifuged at 1,000 g to remove precipitates. The amount and acidity of the gastric juice were measured. Relative volumes, relative acid concentrations and relative acid outputs of the test compounds were calculated from equations(I), (II) and (III) and the results are shown in Table 2.
Relative volume=(the average amount of gastric juice of Group 1—the average amount of gastric juice of Group 2)/(the average amount of gastric juice of Group 1−the average amount of gastric juice of Group 3)—(I)
Relative acid concerntration=(the average acidity of Group 1—the average acidity of Group 2)/(the average acidity of Group 1—the average acidity of Group 3)—(II)
Relative acid output (the total amount of acid output of Group 1—the total amount of acid output of Group 2)/(the total amount of acid output of Group 1—the total amount of acid output of Group 3)—(m)

[2] = target: proton pump (H+/K+-ATPase) (UniProt P19156); assay: Inhibition of proton pump (H+/K+-ATPase activity); assay type: biochemical; design: Effect ratio; settings: relative to omeprazole IC50
Description: (§1) Test 1: Inhibition of proton pump (H^+/K^+-ATPase activity)
(§2) A proton pump enzyme was prepared by the same method as in the Experiment 1-1 of WO 94/14795. Further, the inhibitory effect of proton pump activity was measured by the same method as in Experiment 1-2 of WO 94/14795.
(§3) Namely, the proton pump activity stimulated by Mg^++ was used as a negative comparative group, and the activity stimulated by Mg^++ and K^+ was used as a positive comparative group. The comparative compound was omeprazole.
(§4) Test tubes were divided into 4 groups: Group 1 as negative comparative group(n=3), Group 2 as positive comparative group(n=3), Group 3(n=5×2) to be administered with the compound of the present invention and Group 4(n=5×2) to be administered with the comparative compound.
(§5) The inhibitory effects of Groups 3 and 4 on proton pump activity were measured by employing the compound prepared in Examples and omeprazole, respectively, each of which was dissolved in dimethylsulfoxide at 5 different concentrations.
(§6) To each of Groups 1, 2, 3 and 4 were added 100 μl of magnesium chloride(40 mM) dissolved in 40 mM Tris-HCI buffer(ph 6.0) and 100 μg of the enzyme source. The 50 μl of potassium chloride(50 mM) and 50 μl of ammonium chloride(6 mM) dissolved in 40 mM Tris-HCl buffer(pH 6.0) were added to all groups except for group 1.
(§7) 10 μl of dimethylsulfoxide was added to each of Groups 1 and 2; and to Group 3 was added 10 μl of dimethylsulfoxide solution prepared by dissolving compound of EXAMPLE at 5 different concentration(n=5×2). To Group 4, 10 μl of the solution prepared by dissolving omeprazole in dimethylsulfoxide at 5 different concentration(37.6, 21.4, 12.2, 7.0 and 4.0 μM) was added(n=5×2). 40 mM Tris-HCI buffer(pH=6.0) was added thereto so as to make the total volume 400 μl.
(§8) Thereafter, the test tube of each Group were placed at 37° C. for 30 minutes for the preincubation. 100 μl ATP solution (6.6 mM) was added until the reaction volume became 500 μl. After the reaction was carried out at 37° C. for 30 minutes, 25% cold trichloroacetic acid was added to terminate the enzyme reaction. The released inorganic phosphate was measured by an automatic analyzer(Express 550, coming).
(§9) The difference between Group 1 and Group 2 represents the proton pump activity activated by K^+ only. The IC50s of Group 3 and 4 were calculated from Litchfield-wilcoxon equation[see, e.g., J. Pharrnacol. Exp. Ther., 96, 99(1949)]. The concentrations of the test compounds inhibiting 50% of the proton pump activity are represented as IC50 in Table 1.

[3] = target: proton pump (H+/K+-ATPase) (UniProt P19156); assay: Inhibition of proton pump (H+/K+-ATPase activity); assay type: biochemical; design: other: K+-stimulated proton pump activity, pH 6.0, 37°; settings: K+-stimulated proton pump activity, pH 6.0, 37° C., 30 minutes preincubation; read-out: IC50 (concentration inhibiting 50% of the proton pump activity)
Description: as §1, §2, §3, §4, §5, §6, §7, §8, §9

Row | Compound | Effect ratio [2] | IC50 [3] | Relative conc. [1] | Relative volume [1] | Relative Acid Output [1]
1 | CCCNc1nc(COC)c(C)c(N2CCc3ccccc3C2)n1.Cl [Example 25, 6-methoxymethyl-5-methyl-2-(2-methylethylamino)-4-(1,2,3,4-tetrahydroisoquinolin-2-yl)pyrimidine hydrochloride] | 6.0 | 1850 nM | 0.52 | 1.00 | 0.86
2 | COCc1nc(Nc2ccc(F)cc2)nc(N2CCc3ccccc3C2)c1C.Cl [Example 26, 6-methoxymethyl-5-methyl-2-(4-fluorophenylamino)-4-(1,2,3,4-tetrahydroisoquinolin-2-yl)pyrimidine hydrochloride] | 4.3 | 2600 nM | 0.64 | 0.67 | 0.74
3 | COCc1nc(Nc2ccc(F)cc2)nc(N2CCc3ccccc3C2C)c1C.Cl (stereo not drawn) [Example 28, 6-methoxymethyl-5-methyl-2-(4-fluorophenylamino)-4-(1-methyl-1,2,3,4-tetrahydroisoquinolin-2-yl)pyrimidine hydrochloride] | 6.4 | 1740 nM | 0.60 | 0.78 | 0.78
4 | COCc1nc(Nc2ccc(F)cc2C)nc(N2CCc3ccccc3C2C)c1C.Cl (stereo not drawn) [Example 29, 6-methoxymethyl-5-methyl-2-(2-methyl-4-fluorophenylamino)-4-(1-methyl-1,2,3,4-tetrahydroisoquinolin-2-yl)pyrimidine hydrochloride] | 4.4 | 2550 nM | 0.81 | 0.78 | 0.88
5 | Cc1nc(Nc2ccc(F)cc2)nc(N2CCc3cc(O)ccc3C2C)c1C.Cl (stereo not drawn) [Example 36, 5,6-dimethyl-2-(4-fluorophenylamino)-4-(1-methyl-6-hydroxy-1,2,3,4-tetrahydroisoquinolin-2-yl)pyrimidine hydrochloride] | 35.8 | 310 nM | 1.08 | 1.05 | 1.15

The remaining molecules from weak to strong by IC50 [3], led by results:

Row | Effect ratio [2] | IC50 [3] | Compound | Relative conc. [1] | Relative volume [1] | Relative Acid Output [1]
6 | 4.3 | 2560 nM | COCc1nc(Nc2ccccc2)nc(N2CCc3ccccc3C2C)c1C.Cl (stereo not drawn) [Example 31, 6-methoxymethyl-5-methyl-2-phenylamino-4-(1-methyl-1,2,3,4-tetrahydroisoquinolin-2-yl)pyrimidine hydrochloride] | 0.97 | 1.06 | 1.01
7 | 7.2 | 1550 nM | COCc1nc(Nc2ccc(F)cc2C)nc(N2CCc3ccccc3C2)c1C.Cl [Example 27, 6-methoxymethyl-5-methyl-2-(4-fluoro-2-methylphenylamino)-4-(1,2,3,4-tetrahydroisoquinolin-2-yl)pyrimidine hydrochloride] | 0.68 | 0.99 | 0.90
8 | 8.3 | 1340 nM | Cc1c(CO)nc(Nc2ccccc2)nc1N1CCc2ccccc2C1C.Cl (stereo not drawn) [Example 32, 6-hydroxymethyl-5-methyl-2-phenylamino-4-(1-methyl-1,2,3,4-tetrahydroisoquinolin-2-yl)pyrimidine hydrochloride] | 0.47 | 0.84 | 0.77
9 | 25.8 | 430 nM | Cc1ccccc1Nc1nc(CO)c(C)c(N2CCc3ccccc3C2C)n1.Cl (stereo not drawn) [Example 34, 6-hydroxymethyl-5-methyl-2-(2-methylphenylamino)-4-(1-methyl-1,2,3,4-tetrahydroisoquinolin-2-yl)pyrimidine hydrochloride] | 0.45 | 0.81 | 0.78
